target: T1, human GPR119 (Homo sapiens, UniProt Q8TDV5); experiment: Functional cellular assay measuring GPR119-mediated cAMP release (HTRF) in HEK-293 cells stably expressing recombinant human GPR119; type: cell-based; conditions: cAMP response, cell line expressing human GPR119, 30 minutes at room temperature
T1 construct: expressed in transfected cells
T1 sequence (Q8TDV5 1-335): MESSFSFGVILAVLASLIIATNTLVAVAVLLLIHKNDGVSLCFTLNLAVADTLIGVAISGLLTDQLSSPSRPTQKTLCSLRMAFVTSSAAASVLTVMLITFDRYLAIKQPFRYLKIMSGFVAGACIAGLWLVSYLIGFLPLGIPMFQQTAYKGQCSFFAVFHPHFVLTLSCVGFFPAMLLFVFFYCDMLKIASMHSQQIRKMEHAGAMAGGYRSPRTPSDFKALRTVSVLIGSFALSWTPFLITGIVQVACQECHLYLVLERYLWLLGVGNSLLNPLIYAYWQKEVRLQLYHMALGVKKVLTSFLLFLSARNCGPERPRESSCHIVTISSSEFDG
Method in brief: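 HEK-293 cells stably expressing recombinant human GPR119, suspended at 400000 cells/mL in HBSS/20 mM HEPES/0.1% BSA/2 mM IBMX, exposed to compound for 30 minutes at room temperature. cAMP detected by HTRF (665/620 nm ratio) after 1 h with reagents in lysis buffer. EC50 taken as concentration giving 50% of maximal activation.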

Structure (SMILES) | EC50
CN(C)C(=O)CN1Cc2ccc(N3CC[C@@H](Oc4ccc(OCC(F)(F)F)nc4)C3=O)cc2C1=O [Example 2-05, N,N-dimethyl-2-[1-oxo-6-[(3R)-2-oxo-3-[[6-(2,2,2-trifluoroethoxy)-3-pyridyl]oxy]pyrrolidin-1-yl]isoindolin-2-yl]acetamide] | 62 nM
CN(C)C(=O)CN1Cc2ccc(N3CC[C@@H](Oc4ccc(N5CCCC5)cc4)C3=O)cc2C1=O [Example 2-46, N,N-dimethyl-2-[1-oxo-6-[(3R)-2-oxo-3-(4-pyrrolidin-1-ylphenoxy)pyrrolidin-1-yl]isoindolin-2-yl]acetamide] | 6370 nM
CS(=O)(=O)CN1Cc2ncc(N3CC[C@@H](Oc4ccc(Oc5ccc(F)cc5)nc4)C3=O)cc2C1=O [Example 1-66, 3-[(3R)-3-[[6-(4-fluorophenoxy)-3-pyridyl]oxy]-2-oxo-pyrrolidin-1-yl]-6-(methylsulfonylmethyl)-7H-pyrrolo[3,4-b]pyridin-5-one] | 163 nM
CN(C)C(=O)CN1Cc2ccc(N3CC[C@@H](Oc4ccc(Oc5ccc(F)cc5F)nc4)C3=O)cc2C1=O [Example 1-48, 2-[6-[(3R)-3-[[6-(2,4-difluorophenoxy)-3-pyridyl]oxy]-2-oxo-pyrrolidin-1-yl]-1-oxo-isoindolin-2-yl]-N,N-dimethyl-acetamide] | 73 nM
CN(C)C(=O)CN1Cc2ccc(N3CC[C@@H](Oc4ccc(SCC5CC5)nc4)C3=O)cc2C1=O [Example 2-19, 2-[6-[(3R)-3-[[6-(cyclopropylmethylsulfanyl)-3-pyridyl]oxy]-2-oxo-pyrrolidin-1-yl]-1-oxo-isoindolin-2-yl]-N,N-dimethyl-acetamide] | 47 nM
CN(C)C(=O)c1nc2ccc(N3CC[C@@H](Oc4ccc(OCC5CC5)nc4)C3=O)cc2c(=O)[nH]1 [Example 1-44, 6-[(3R)-3-[[6-(cyclopropylmethoxy)-3-pyridyl]oxy]-2-oxo-pyrrolidin-1-yl]-N,N-dimethyl-4-oxo-3H-quinazoline-2-carboxamide] | 276 nM
CN1C(=O)c2cc(N3CC[C@@H](Oc4ccc(OCC5CC5)nc4)C3=O)ccc2C1CC(=O)O (stereo partly drawn) [Example 1-03, 2-[5-[(3R)-3-[[6-(cyclopropylmethoxy)-3-pyridyl]oxy]-2-oxo-pyrrolidin-1-yl]-2-methyl-3-oxo-isoindolin-1-yl]acetic acid] | 10900 nM
Cc1noc(COc2ccc(O[C@@H]3CCN(c4ccc5c(c4)C(=O)N(CC(=O)N(C)C)C5)C3=O)cc2)n1 [Example 2-43, N,N-dimethyl-2-[6-[(3R)-3-[4-[(3-methyl-1,2,4-oxadiazol-5-yl)methoxy]phenoxy]-2-oxo-pyrrolidin-1-yl]-1-oxo-isoindolin-2-yl]acetamide] | 1500 nM
CCCCC(=O)c1ccc(O[C@@H]2CCN(c3ccc4c(c3)C(=O)N(CC(N)=O)C4)C2=O)cc1 [Example 2-54, 2-[1-oxo-6-[(3R)-2-oxo-3-(4-pentanoylphenoxy)pyrrolidin-1-yl]isoindolin-2-yl]acetamide] | 38 nM
CN(C)C(=O)CN1Cc2ccc(N3CC[C@@H](Oc4ccc(C(=O)C5(C)CC5)nc4)C3=O)cc2C1=O [Example 2-59, N,N-dimethyl-2-[6-[(3R)-3-[[6-(1-methylcyclopropanecarbonyl)-3-pyridyl]oxy]-2-oxo-pyrrolidin-1-yl]-1-oxo-isoindolin-2-yl]acetamide] | 330 nM
C[S@+]([O-])CN1Cc2ncc(N3CC[C@@H](Oc4ccc(OCC(F)(F)F)nc4)C3=O)cc2C1=O [Example 1-68, 6-((S)-methanesulfinylmethyl)-3-{(R)-2-oxo-3-[6-(2,2,2-trifluoro-ethoxy)-pyridin-3-yloxy]-pyrrolidin-1-yl}-6,7-dihydro-pyrrolo[3,4-b]pyridin-5-one] | 143 nM
Cc1cc(O[C@@H]2CCN(c3ccc4c(c3)C(=O)N(CC(=O)N(C)C)C4)C2=O)cnc1OCC1CC1 [Example 2-07, 2-[6-[(3R)-3-[[6-(cyclopropylmethoxy)-5-methyl-3-pyridyl]oxy]-2-oxo-pyrrolidin-1-yl]-1-oxo-isoindolin-2-yl]-N,N-dimethyl-acetamide] | 115 nM
CN(C)C(=O)Cn1c(=O)c2cc(N3CC[C@@H](Oc4ccc(OCC5CC5)nc4)C3=O)ccc2n1C [Example 1-27, 2-[5-[(3R)-3-[[6-(cyclopropylmethoxy)-3-pyridyl]oxy]-2-oxo-pyrrolidin-1-yl]-1-methyl-3-oxo-indazol-2-yl]-N,N-dimethyl-acetamide] | 488 nM
CN(C)C(=O)CN1Cc2ccc(N3CC[C@@H](Oc4ccc(Oc5ccccn5)cc4)C3=O)cc2C1=O [Example 2-23, N,N-dimethyl-2-[1-oxo-6-[(3R)-2-oxo-3-[4-(2-pyridyloxy)phenoxy]pyrrolidin-1-yl]isoindolin-2-yl]acetamide] | 261 nM
CN(C)C(=O)CN1Cc2ccc(N3CC[C@@H](Oc4ccc(-n5cncn5)cc4)C3=O)cc2C1=O [Example 2-25, N,N-dimethyl-2-[1-oxo-6-[(3R)-2-oxo-3-[4-(1,2,4-triazol-1-yl)phenoxy]pyrrolidin-1-yl]isoindolin-2-yl]acetamide] | 12000 nM
NC(=O)CN1Cc2ccc(N3CC[C@@H](Oc4ccc(C(=O)CCC5CC5)nc4)C3=O)cc2C1=O [Example 2-56, 2-[6-[(3R)-3-[[6-(3-cyclopropylpropanoyl)-3-pyridyl]oxy]-2-oxo-pyrrolidin-1-yl]-1-oxo-isoindolin-2-yl]acetamide] | 34 nM
CN(C)C(=O)CC1c2ccc(N3CC[C@@H](Oc4ccc(OCC5CC5)nc4)C3=O)cc2C(=O)N1C (stereo partly drawn) [Example 1-07, 2-[5-[(3R)-3-[[6-(cyclopropylmethoxy)-3-pyridyl]oxy]-2-oxo-pyrrolidin-1-yl]-2-methyl-3-oxo-isoindolin-1-yl]-N,N-dimethyl-acetamide] | 1900 nM
CN(C)C(=O)CN1C(=O)c2cc(N3CC[C@@H](Oc4ccc(OCC5CC5)nc4)C3=O)ccc2C1(C)C [Example 1-12, 2-[5-[(3R)-3-[[6-(cyclopropylmethoxy)-3-pyridyl]oxy]-2-oxo-pyrrolidin-1-yl]-1,1-dimethyl-3-oxo-isoindolin-2-yl]-N,N-dimethyl-acetamide] | 29400 nM
CN(C)C(=O)CN1Cc2ccc(N3CC[C@@H](Oc4ccc(C(=O)N5CCCC5)cc4)C3=O)cc2C1=O [Example 2-35, N,N-dimethyl-2-[1-oxo-6-[(3R)-2-oxo-3-[4-(pyrrolidine-1-carbonyl)phenoxy]pyrrolidin-1-yl]isoindolin-2-yl]acetamide] | 8660 nM

Other lines, results leading:

EC50 | Structure (SMILES)
39 nM | O=C(CN1Cc2ccc(N3CC[C@@H](Oc4ccc(OCC(F)(F)F)nc4)C3=O)cc2C1=O)N1CCC1 [Example 4-42, 2-[2-(azetidin-1-yl)-2-oxo-ethyl]-6-[(3R)-2-oxo-3-[[6-(2,2,2-trifluoroethoxy)-3-pyridyl]oxy]pyrrolidin-1-yl]isoindolin-1-one]
46 nM | CN(C)C(=O)CN1Cc2c(F)cc(N3CC[C@@H](Oc4ccc(OCCC5CC5)nc4)C3=O)cc2C1=O [Example 4-27, 2-[6-[(3R)-3-[[6-(2-cyclopropylethoxy)-3-pyridyl]oxy]-2-oxo-pyrrolidin-1-yl]-4-fluoro-1-oxo-isoindolin-2-yl]-N,N-dimethyl-acetamide]
80 nM | CN(C)C(=O)CN1Cc2c(F)cc(N3CC[C@@H](Oc4ccc(OCC5CC5)nc4)C3=O)cc2C1=O [Example 4-25, 2-[6-[(3R)-3-[[6-(cyclopropylmethoxy)-3-pyridyl]oxy]-2-oxo-pyrrolidin-1-yl]-4-fluoro-1-oxo-isoindolin-2-yl]-N,N-dimethyl-acetamide]
222 nM | CCOc1ccc(O[C@@H]2CCN(c3cc(F)c4c(c3)C(=O)N(CC(=O)N(C)C)C4)C2=O)cn1 [Example 4-21, 2-[6-[(3R)-3-[(6-ethoxy-3-pyridyl)oxy]-2-oxo-pyrrolidin-1-yl]-4-fluoro-1-oxo-isoindolin-2-yl]-N,N-dimethyl-acetamide]
297 nM | CN(CCO)C(=O)CN1Cc2ccc(N3CC[C@@H](Oc4ccc(Oc5ccc(F)cc5)nc4)C3=O)cc2C1=O [Example 4-12, 2-[6-[(3R)-3-[[6-(4-fluorophenoxy)-3-pyridyl]oxy]-2-oxo-pyrrolidin-1-yl]-1-oxo-isoindolin-2-yl]-N-(2-hydroxyethyl)-N-methyl-acetamide]
64 nM | C=CCOc1ccc(O[C@@H]2CCN(c3cc(F)c4c(c3)C(=O)N(CC(=O)N(C)C)C4)C2=O)cn1 [Example 6-03, 2-[6-[(3R)-3-[(6-allyloxy-3-pyridyl)oxy]-2-oxo-pyrrolidin-1-yl]-4-fluoro-1-oxo-isoindolin-2-yl]-N,N-dimethyl-acetamide]
5040 nM | CC(C)N1Cc2c(F)cc(N3CC[C@@H](Oc4ccc(OCCC5CC5)nc4)C3=O)cc2C1=O [Example 5-05, 6-[(3R)-3-[[6-(2-cyclopropylethoxy)-3-pyridyl]oxy]-2-oxo-pyrrolidin-1-yl]-4-fluoro-2-isopropyl-isoindolin-1-one]
271 nM | CCOc1ccc(O[C@@H]2CCN(c3cc(F)c4c(c3)C(=O)N(CC(N)=O)C4)C2=O)cn1 [Example 4-16, 2-[6-[(3R)-3-[(6-ethoxy-3-pyridyl)oxy]-2-oxo-pyrrolidin-1-yl]-4-fluoro-1-oxo-isoindolin-2-yl]acetamide]
208 nM | O=C(CN1Cc2ccc(N3CC[C@@H](Oc4ccc(Oc5ccc(F)cc5)nc4)C3=O)cc2C1=O)N1CC(O)C1 [Example 4-10, 6-[(3R)-3-[[6-(4-fluorophenoxy)-3-pyridyl]oxy]-2-oxo-pyrrolidin-1-yl]-2-[2-(3-hydroxyazetidin-1-yl)-2-oxo-ethyl]isoindolin-1-one]
